In patent publication US11851411B2, “Herbicidal compounds” (SYNGENTA CROP PROTECTION AG, priority 2018, dated 2023):

Key:
Format in all cases: in vivo
[1] = tested on: Setaria faberi (SETFA); test: Glasshouse herbicide test, post-emergence; details: POST Application; 500 g/h; evaluated after 13 days
Procedure: (§1) Seeds of a variety of test species are shown in standard soil in pots (Lolium perenne (LOLPE), Amaranthus retoflexus (AMARE), Abutilon theophrasti (ABUTH), Setaria faberi (SETFA), Echinochloa crus-galli (ECHCG), Ipomoea hederacea (IPOHE)). After cultivation for one day (pre-emergence) or after 8 days cultivation (post-emergence) under controlled conditions in a glasshouse (at 24/16° C., day/night; 14 hours light; 65% humidity), the plants are sprayed with an aqueous spray solution derived from the formulation of the technical active ingredient in acetone/water (50:50) solution containing 0.5% Tween 20 (polyoxyethelyene sorbitan monolaurate, CAS RN 9005-64-5). Compounds are applied at 500 g/h. The test plants are then grown in a glasshouse under controlled conditions in a glasshouse (at 24/16° C., day/night; 14 hours light; 65% humidity) and watered twice daily. After 13 days for pre and post-emergence, the test is evaluated for the percentage damage caused to the plant. The biological activities are shown in the following table on a five point scale (5=80-100%; 4=60-79%; 3=40-59%; 2=20-39%; 1=0-19%).

[2] = tested on: Ipomoea hederacea (IPOHE); test: Glasshouse herbicide test, post-emergence; details: POST Application; 500 g/h; evaluated after 13 days
Procedure: as §1

[3] = tested on: Amaranthus retoflexus (AMARE); test: Glasshouse herbicide test, post-emergence; details: POST Application; 500 g/h; evaluated after 13 days
Procedure: as §1

[4] = tested on: Echinochloa crus-galli (ECHCG); test: Glasshouse herbicide test, post-emergence; details: POST Application; 500 g/h; evaluated after 13 days
Procedure: as §1

[5] = tested on: Abutilon theophrasti (ABUTH); test: Glasshouse herbicide test, post-emergence; details: POST Application; 500 g/h; evaluated after 13 days
Procedure: as §1

[6] = tested on: Setaria faberi (SETFA); test: Glasshouse herbicide test, pre-emergence; details: PRE Application; 500 g/h; evaluated after 13 days
Procedure: as §1

[7] = tested on: Ipomoea hederacea (IPOHE); test: Glasshouse herbicide test, pre-emergence; details: PRE Application; 500 g/h; evaluated after 13 days
Procedure: as §1

[8] = tested on: Amaranthus retoflexus (AMARE); test: Glasshouse herbicide test, pre-emergence; details: PRE Application; 500 g/h; evaluated after 13 days
Procedure: as §1

[9] = tested on: Echinochloa crus-galli (ECHCG); test: Glasshouse herbicide test, pre-emergence; details: PRE Application; 500 g/h; evaluated after 13 days
Procedure: as §1

[10] = tested on: Abutilon theophrasti (ABUTH); test: Glasshouse herbicide test, pre-emergence; details: PRE Application; 500 g/h; evaluated after 13 days
Procedure: as §1

Structure (SMILES) | percentage damage caused to the plant, five point scale, SETFA [1] | percentage damage caused to the plant, five point scale, IPOHE [2] | percentage damage caused to the plant, five point scale, AMARE [3] | percentage damage caused to the plant, five point scale, ECHCG [4] | percentage damage caused to the plant, five point scale, ABUTH [5] | percentage damage caused to the plant, five point scale, SETFA [6] | percentage damage caused to the plant, five point scale, IPOHE [7] | percentage damage caused to the plant, five point scale, AMARE [8] | percentage damage caused to the plant, five point scale, ECHCG [9] | percentage damage caused to the plant, five point scale, ABUTH [10]
CON(C(C)=O)c1c(S(C)(=O)=O)ccc(C(=O)Nc2nnnn2C)c1Cl [Compound 1.007] | 5 (5=80-100%) | 5 (5=80-100%) | 5 (5=80-100%) | 5 (5=80-100%) | 5 (5=80-100%) | 3 (3=40-59%) | 5 (5=80-100%) | 5 (5=80-100%) | 5 (5=80-100%) | 5 (5=80-100%)
CCn1nnnc1NC(=O)c1ccc(S(C)(=O)=O)c(N(OC)C(C)=O)c1Cl [Compound 1.008] | 5 (5=80-100%) | 5 (5=80-100%) | 5 (5=80-100%) | 5 (5=80-100%) | 5 (5=80-100%) | 5 (5=80-100%) | 5 (5=80-100%) | 5 (5=80-100%) | 5 (5=80-100%) | 5 (5=80-100%)
CCCn1nnnc1NC(=O)c1ccc(S(C)(=O)=O)c(N(OC)C(C)=O)c1Cl [Compound 1.009, 3-[acetyl(methoxy)amino]-2-chloro-4-methylsulfonyl-N-(1-propyltetrazol-5-yl)benzamide] | 5 (5=80-100%) | 5 (5=80-100%) | 5 (5=80-100%) | 5 (5=80-100%) | 5 (5=80-100%) | 4 (4=60-79%) | 5 (5=80-100%) | 5 (5=80-100%) | 5 (5=80-100%) | 5 (5=80-100%)
CON(C(=O)OC(C)(C)C)c1c(C(F)(F)F)ccc(C(=O)Nc2nnnn2C)c1Cl [Compound 1.025] | 5 (5=80-100%) | 5 (5=80-100%) | 5 (5=80-100%) | 5 (5=80-100%) | 5 (5=80-100%) | 5 (5=80-100%) | 5 (5=80-100%) | 5 (5=80-100%) | 5 (5=80-100%) | 5 (5=80-100%)
CON(C(=O)OC(C)(C)C)c1c(S(C)(=O)=O)ccc(C(=O)Nc2nnnn2C)c1Cl [Compound 1.031] | 5 (5=80-100%) | 5 (5=80-100%) | 5 (5=80-100%) | 5 (5=80-100%) | 5 (5=80-100%) | 5 (5=80-100%) | 5 (5=80-100%) | 5 (5=80-100%) | 5 (5=80-100%) | 5 (5=80-100%)
